Drawing on patent EP4737450A1 (Longwood Pharmaceuticals (Hangzhou) Co., Ltd, priority 2023, dated 2025), this text covers IC50 for 25 molecules.

Several values for one entry are separate records, joined by “and”; a condition that tells them apart may be missing. Equal entries are not always repeated.

In the assay the target is T1, plasma kallikrein (PKa) (Homo sapiens, UniProt P03952).
T1 construct: purchased R & D 2497-SE
Kind of assay: Inhibitory activity against plasma kallikrein in vitro (fluorescence intensity enzyme assay, Pro-Phe-Arg-AMC substrate). The settings on record: plasma kallikrein enzyme assay, Pro-Phe-Arg-AMC substrate; read-out: PKa IC50. The class given is biochemical. The gist of the method:
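Fluorescence intensity enzyme assay with 10 nM enzyme and 60 µM Pro-Phe-Arg-AMC (final concentrations). Compounds in DMSO, tested in duplicate over a dose series. IC50 from nonlinear regression curve fitting.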

T1 sequence (P03952 391-638 limits assumed): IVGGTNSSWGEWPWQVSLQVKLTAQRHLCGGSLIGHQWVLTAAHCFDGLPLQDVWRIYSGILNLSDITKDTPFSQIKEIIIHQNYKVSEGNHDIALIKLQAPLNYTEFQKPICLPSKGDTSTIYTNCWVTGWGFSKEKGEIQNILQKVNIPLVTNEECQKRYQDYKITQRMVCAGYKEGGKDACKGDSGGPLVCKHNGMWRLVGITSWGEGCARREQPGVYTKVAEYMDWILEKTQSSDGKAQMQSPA
T1 sequence (P03952 20-390 partner limits assumed): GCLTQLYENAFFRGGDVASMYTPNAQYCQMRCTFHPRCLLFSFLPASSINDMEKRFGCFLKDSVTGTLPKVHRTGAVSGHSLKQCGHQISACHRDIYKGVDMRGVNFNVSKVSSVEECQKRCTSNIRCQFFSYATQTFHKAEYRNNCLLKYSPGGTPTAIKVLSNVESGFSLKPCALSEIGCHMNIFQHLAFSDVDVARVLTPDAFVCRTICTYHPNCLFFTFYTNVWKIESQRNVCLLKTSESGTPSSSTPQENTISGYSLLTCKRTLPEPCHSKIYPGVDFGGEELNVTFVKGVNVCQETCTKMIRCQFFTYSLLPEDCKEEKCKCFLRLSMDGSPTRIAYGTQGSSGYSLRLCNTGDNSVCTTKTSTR

Turning to `COc1ccc(F)c(CNC(=O)c2cn(Cc3ccc(Cn4cc(F)ccc4=O)cc3)nc2C2CC(F)(F)C2)c1F` [Compound 209, N-(2,6-difluoro-3-methoxybenzyl)-3-(3,3-difluorocyclobutyl)-1-(4-((5-fluoro-2-oxopyridin-1(2H)yl)methyl)benzyl)-1H-pyrazole-4-carboxamide], the IC50 was 10.6 nM and > 100 nM.

Take `CCn1c(CNC(=O)c2cn(Cc3ccc(Cn4ccccc4=O)cc3)nc2COC)cc2cnccc21` [Compound 176]: the IC50 was determined as 18 nM.

Take `COCc1nn(Cc2ccc(Cn3c(=O)sc4cccc(F)c43)cc2)cc1C(=O)NCc1nccc(OC)c1F` [Compound 160]: the IC50 is 413 nM.

`COCC1(F)CN(Cc2nn(Cc3ccc(Cn4cc(F)ccc4=O)cc3)cc2C(=O)NCc2c(F)ccc(OC)c2F)C1` [Compound 220]: the IC50 is 12 nM.

As to `COc1ccnc(CNC(=O)c2cn(Cc3ccc(Cn4ccccc4=O)cc3)nc2COC2CCCOC2)c1F` (stereo not shown) [Compound 294], the IC50 is 10.6 nM.

As for `COCc1nn(Cc2ccc(Cn3ccc4ncccc43)cc2)cc1C(=O)NCc1nccc(OC)c1F` [Compound 98], the IC50 stood at 245 nM.

Consider `COc1ccnc(CNC(=O)c2cn(Cc3ccc(Cn4ccccc4=O)cc3)nc2C2CC(C)(OC)C2)c1F` (stereo not shown) [Compound 210], for which the IC50 amounted to 5.99 nM.

As to `COc1ccnc(CNC(=O)c2cn(Cc3ccc(Cn4ccccc4=O)cc3)nc2CN2C(=O)CC(C)(C)CC2=O)c1F` [Compound 305], the IC50 came out at 12.4 nM.

Regarding `COc1ccc(F)c(CNC(=O)c2cn(Cc3ccc(Cn4ccccc4=O)cc3)nc2C2(OC)CCC2)c1F` [Compound 258], the IC50 was 63 nM.

As to `COCCOCc1nn(Cc2ccc(Cn3ccccc3=O)cc2)cc1C(=O)NCc1nccc(OC)c1F` [Compound 162], the IC50 turned out to be 8.68 nM.

As to `N=C(N)c1cnc(CNC(=O)c2cnn(Cc3ccc(CC4CC4)cc3)c2)nc1` [Compound 329], the IC50 amounted to 42.4 nM.

Turning to `O=C(NCc1ccc2ccncc2c1)c1cnn(Cc2ccc(Cn3ccccc3=O)cc2)c1` [Compound 197], the IC50 was found to be 164 nM.

For the molecule `COc1ccc(F)c(CNC(=O)c2cn(Cc3ccc(Cn4cc(F)ccc4=O)cc3)nc2OCCF)c1F` [Compound 226], the IC50 was 10.9 nM.

Take `N#Cc1cc(N2CC3C(C2)C3(F)F)ccc1Cn1cnc(C(=O)NC2CCc3cc(N)ncc32)n1` (single isomer, unassigned) [Compound 53]: the IC50 is above 100 nM.

Consider `COCC1(F)CN(c2nn(Cc3ccc(Cn4ccccc4=O)cc3)cc2C(=O)NCc2nccc(OC)c2F)C1` [Compound 223], for which the IC50 was 11.9 nM.

`Cc1cc(Cl)nc(C)c1CNC(=O)c1ncn(Cc2ccc(Cn3ccccc3=O)cc2)n1` [Compound 100]: the IC50 is above 100 nM.

As to `CC[C@@H](COC)OCc1nn(Cc2ccc(Cn3ccccc3=O)cc2)cc1C(=O)NCc1nccc(OC)c1F` [Compound 172], the IC50 was found to be 113 nM.

Turning to `COc1ccnc(CNC(=O)c2cn(Cc3ccc(Cn4ccccc4=O)cc3)nc2C(F)(F)F)c1F` [Compound 90], the IC50 turned out to be 3.09 nM.

`COCc1nn(Cc2ccc(Cn3ccccc3=O)cc2)cc1C(=O)NCc1cc2cnccc2[nH]1` [Compound 108]: the IC50 came out at 36.8 nM.

For `COCc1nn(Cc2ccc(-n3ccccc3=O)cc2)cc1C(=O)NCc1nc2c(s1)CNCC2` [Compound 107], the IC50 is above 100 nM.

For the molecule `COCc1nn(Cc2ccc(Cn3ccccc3=O)cc2)cc1C(=O)NCc1c(C)cncc1C` [Compound 114], the half-inhibitory concentration (IC50) is above 100 nM.

Turning to `COCc1nn(Cc2ccc(Cn3ccccc3=O)cc2)cc1C(=O)NCc1c(Cl)c2ccncc2n1C` [Compound 154], the IC50 was 68.8 nM.

As for `COCc1nn(Cc2ccc(N3CC4C(C3)C4(F)F)cc2C#N)cc1C(=O)NCc1nc2c(s1)CNCC2` (stereo not shown) [Compound 129], the IC50 was 406 nM.

For the molecule `O=C(NCc1nccc(NC2COC2)c1F)c1cn(Cc2ccc(Cn3ccccc3=O)cc2)nc1N1CC(F)(F)C1` [Compound 332], the IC50 was determined as 540 nM.

Take `COCc1nn(Cc2ccc(Cn3ccccc3=O)cc2)cc1C(=O)NCc1cn2ccc(Cl)c(F)c2n1` [Compound 120]: the half-maximal inhibitory concentration (IC50) is above 1000 nM.
